In the supplement of paper PMC11061612:

Legend:
Test in all cases: Bliss excess, mean over the matrix (fraction); higher = more synergy
[1] = tested on: 23132-87 (Gastric Carcinoma)
Summary of the method: (§1)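 Cell lines in DMEM/F12 or RPMI with 10% FBS were plated in 1536-well plates, held 24 hours at 37°C, 5% CO2, then given two-drug dose matrices for 72 hours (DMSO typically 0.2%). Viability was read by CellTiter-Glo 2.0 luminescence and scaled as inhibition from 0 (vehicle wells) to 1 (blank wells). Combination Emax is the second-highest inhibition in the matrix; Bliss excess is observed combination effect minus expected EA + EB − EA·EB, EA and EB being single-agent effects.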

[2] = tested on: CAL-120 (Breast Carcinoma)
Summary of the method: as §1

[3] = tested on: COLO-680N (Esophageal Squamous Cell Carcinoma)
Summary of the method: as §1

GB-1 (Glioblastoma) = tested on: GB-1 (Glioblastoma)
Summary of the method: as §1

[4] = tested on: GP5d (Colorectal Carcinoma)
Summary of the method: as §1

[5] = tested on: HEC-1 (Endometrial Carcinoma)
Summary of the method: as §1

[6] = tested on: HSC-39 (Gastric Carcinoma)
Summary of the method: as §1

IST-MES1 (Mesothelioma) = tested on: IST-MES1 (Mesothelioma)
Summary of the method: as §1

[7] = tested on: LB996-RCC (Kidney Carcinoma)
Summary of the method: as §1

LN-229 (Glioblastoma) = tested on: LN-229 (Glioblastoma)
Summary of the method: as §1

[8] = tested on: MFE-280 (Endometrial Carcinoma)
Summary of the method: as §1

[9] = tested on: MKN45 (Gastric Carcinoma)
Summary of the method: as §1

[10] = tested on: NCI-H23 (Lung Adenocarcinoma)
Summary of the method: as §1

[11] = tested on: NCI-H2342 (Lung Adenocarcinoma)
Summary of the method: as §1

[12] = tested on: OAW-42 (Ovarian Carcinoma)
Summary of the method: as §1

[13] = tested on: RCM-1 (Colorectal Carcinoma)
Summary of the method: as §1

[14] = tested on: RERF-GC-1B (Gastric Carcinoma)
Summary of the method: as §1

[15] = tested on: RERF-LC-Sq1 (Squamous Cell Lung Carcinoma)
Summary of the method: as §1

[16] = tested on: SU-DHL-10 (B-Cell Non-Hodgkin's Lymphoma)
Summary of the method: as §1

[17] = tested on: VAL (B-Cell Non-Hodgkin's Lymphoma)
Summary of the method: as §1

Row | SMILES | Bliss excess [1] | Bliss excess [2] | Bliss excess [3] | Bliss excess (GB-1 (Glioblastoma)) | Bliss excess [4] | Bliss excess [5] | Bliss excess [6] | Bliss excess (IST-MES1 (Mesothelioma)) | Bliss excess [7] | Bliss excess (LN-229 (Glioblastoma)) | Bliss excess [8] | Bliss excess [9] | Bliss excess [10] | Bliss excess [11] | Bliss excess [12] | Bliss excess [13] | Bliss excess [14] | Bliss excess [15] | Bliss excess [16] | Bliss excess [17]
1 | Cc1c2c(nn1C)CSCc1cc(n(C)n1)CSc1cc(c3ccccc3c1)OCCCc1c(C(=O)O)n(C)c3c-2c(Cl)ccc13 [AZD5991] + C[C@@H](Nc1cc(F)cc(F)c1)c1cc(C(=O)N(C)C)cc2c(=O)cc(N3CCOCC3)oc12 [AZD8186] (first compound max 1 µM, 7x7, partner max 3 µM) | -0.0603 | -0.0318 | 0.0001 | -0.0152 | -0.0645 | -0.0143 | -0.0069 | -0.0524 | 0.0208 | -0.0063 | 0.0185 | -0.0777 | -0.0085 | -0.0027 | 0.0262 | -0.0102 | -0.0188 | -0.0353 | 0.0239 | 0.0426
2 | Cc1c2c(nn1C)CSCc1cc(n(C)n1)CSc1cc(c3ccccc3c1)OCCCc1c(C(=O)O)n(C)c3c-2c(Cl)ccc13 [AZD5991] + Cn1cnc2c(F)c(Nc3ccc(Br)cc3Cl)c(C(=O)NOCCO)cc21 [Selumetinib] (first compound max 1 µM, 7x7, partner max 3 µM) | 0.0334 | -0.0105 | -0.0091 | -0.0299 | 0.0017 | -0.0318 | 0.0118 | -0.0466 | 0.0053 | 0.0485 | 0.0226 | -0.0643 | 0.0495 | -0.0673 | 0.0218 | 0.0025 | 0.034 | 0.0048 | -0.021 | -0.0227
3 | NC1(C(=O)N[C@@H](CCO)c2ccc(Cl)cc2)CCN(c2ncnc3[nH]ccc23)CC1 [Capivasertib] + CC(=O)c1c(C)c2cnc(Nc3ccc(N4CCNCC4)cn3)nc2n(C2CCCC2)c1=O [Palbociclib] (first compound max 10 µM, 7x7, partner max 10 µM) | -0.0183 | -0.0221 | -0.0467 | -0.0497 | -0.018 | -0.0115 | 0.0906 | -0.0632 | 0.0312 | -0.0387 | -0.0624 | 0.0256 | 0.008 | 0.0214 | -0.0305 | -0.0058 | -0.0203 | 0.0352 | 0.0478 | -0.0051
4 | NC1(C(=O)N[C@@H](CCO)c2ccc(Cl)cc2)CCN(c2ncnc3[nH]ccc23)CC1 [Capivasertib] + CC(C)n1c(=O)n(C)c2cnc3cc(F)c(-c4ccc(OCCCN5CCCCC5)nc4)cc3c21 [AZD1390] (first compound max 10 µM, 7x7, partner max 0.3 µM) | -0.055 | -0.086 | -0.0403 | -0.0399 | -0.0843 | -0.0453 | 0.0112 | -0.0553 | -0.0871 | -0.0755 | -0.0763 | -0.0646 | -0.0484 | -0.0212 | -0.0171 | -0.0274 | -0.0323 | -0.0655 | 0.0402 | -0.0887
5 | NC1(C(=O)N[C@@H](CCO)c2ccc(Cl)cc2)CCN(c2ncnc3[nH]ccc23)CC1 [Capivasertib] + CCN(CCO)CCCOc1ccc2c(Nc3cc(CC(=O)Nc4cccc(F)c4)[nH]n3)ncnc2c1 [AZD2811] (first compound max 10 µM, 7x7, partner max 1 µM) | 0.008 | 0.0165 | -0.0009 | -0.0143 | -0.0899 | 0.016 | -0.0799 | -0.0427 | -0.0146 | -0.0413 | -0.0112 | 0.0383 | 0.0232 | 0.0242 | 0.0291 | -0.0426 | 0.0188 | 0.0072 | -0.0466 | -0.162
6 | NC1(C(=O)N[C@@H](CCO)c2ccc(Cl)cc2)CCN(c2ncnc3[nH]ccc23)CC1 [Capivasertib] + COc1nnc2ccc(N3CCC(c4ccc(OCCN5CCN(C)C(=O)[C@H]5C)cc4)CC3)nn12 [AZD5153] (first compound max 10 µM, 7x7, partner max 1 µM) | 0.0623 | 0.101 | 0.0355 | 0.0557 | 0.0292 | 0.0143 | 0.0142 | -0.0264 | 0.0131 | -0.0313 | -0.0126 | -0.0587 | -0.0038 | 0.0361 | 0.0972 | 0.0153 | 0.0375 | 0.0617 | -0.027 | -0.0867
7 | NC1(C(=O)N[C@@H](CCO)c2ccc(Cl)cc2)CCN(c2ncnc3[nH]ccc23)CC1 [Capivasertib] + C[C@@H]1COCCN1C2=NC(=NC(=C2)C3(CC3)[S@](=N)(=O)C)C4=C5C=CNC5=NC=C4 [AZD6738] (first compound max 10 µM, 7x7, partner max 10 µM) | 0.0024 | -0.0283 | -0.0158 | -0.054 | -0.103 | -0.0205 | -0.0181 | 0.0194 | -0.0418 | -0.0405 | -0.0742 | -0.0553 | -0.0434 | -0.0709 | 0.0034 | -0.0863 | -0.0076 | -0.0719 | -0.0359 | -0.0735
